This note sets out measurements from the OPERA property sets (Mansouri et al. 2018).

Conditions in one data set: not given
Consider `Cc1ccc2nccc(=O)n2c1`, for which the logP – broadly, a log measure of how a compound divides between an organic and an aqueous phase – came to 0.61.
Still for that read-out and setting: the value for `CNC(=O)CCn1ccc(=O)c(O)c1C` was -1.1; that for `CNc1nc(C)c(C(=O)CCN2CCOCC2)s1` was 0.95; that for `COC(=O)NC1=NCC(c2ccc(Cl)cc2)N1C` (stereo not given) was 2.17.
`O=c1[nH]c(=O)n(Cc2ccc(Cl)cc2)cc1F`: the logP amounted to 1.64.
The same measure, in the same setting: the value for `CCCOC(=O)c1ccoc1` was 2.36; that for `CC(=O)CC(c1ccc([N+](=O)[O-])cc1)c1c(O)c2ccccc2oc1=O` (stereo not given) was 1.98.
Take `COC(=O)Nc1nc2cc(C(=O)c3ccccc3)ccc2n1C(=O)OC`: the logP turned out to be 2.47.
Molecule `O=c1[nH]c2cc(Cl)ccc2n1C1CCN(CCCC(c2ccc(F)cc2)c2ccc(F)cc2)CC1` had a logP of 7.1.
The same measure, in the same setting: as for `CC(C)(C)C(COc1ccc(F)cc1)OC(=O)n1ccnc1` (stereo not given), the figure is 3.68.
Still for that read-out and setting: as for `CCCCCCCCn1ccc(=O)c(O)c1C`, the figure is 2.88; as for `C[N+](C)(C)CC1CSCO1.[I-]` (stereo not given), -2.7.
The same measure, in the same setting: as for `COc1ccc(CON2C(=O)CC3(CCCC3)C2=O)cc1`, the figure is 2.23; as for `CCCCCCn1ccc(=O)c(O)c1C`, 1.9; as for `CCCCCCn1ccc(=O)c(O)c1CC`, 2.28.
The molecule `CS(=O)(=O)OCCC[Se]CCCOS(C)(=O)=O` returned a logP of 0.38.
With `CCOC(=O)n1c(NC(=O)OC)nc2cc(C(=O)c3ccccc3)ccc21`, the log partition coefficient (logP) was 2.93.
Consider `Cn1c([N+](=O)[O-])cnc1C1CC1`, for which the logP turned out to be 1.
Same read-out and setting: as for `NS(=O)(=O)c1ccc(Cl)cc1`, the figure is 1.15; as for `CCCCCCCO`, 2.62; as for `COc1cc(NS(=O)(=O)c2ccc(N)cc2)ncn1`, 0.7.
Still for that read-out and setting: the value for `CC(C)(C)C(COc1ccc(-c2ccccc2)cc1)OC(=S)n1ccnc1` (stereo not given) was 6.06.
The molecule `Cc1[nH]cnc1CSCCNc1[nH]ccc1[N+](=O)[O-]` came in with a logP of 1.04.
Still for that read-out and setting: the value for `COC(=O)c1c(C)[nH]c(-c2cccc(Cl)n2)c1C(=O)OC` was 2.65; that for `CC(CN1CCCCC1)C(=O)c1ccccc1` (stereo not given) was 3.51.
Regarding `O=c1[nH]c(=S)ccn1[C@H]1C=C[C@@H](CO)O1`, the logP was -0.28.
The same measure, in the same setting: as for `CCN1CCc2nc(N)oc2CC1`, the figure is 0.05; as for `CCCCCCC(=O)N(C)c1ccc(S(=O)(=O)N(C)C)cc1`, 2.61; as for `c1ccc(C2(N3CCCCC3)CCCCC2)cc1`, 4.69.
The same measure, in the same setting: the value for `COc1ccc(COCc2cccc(CN3CCOCC3)c2)cc1` was 2.83; that for `O=C(NN1CC=CCC1)C1CC1` was 1.12; that for `Cc1c(C(C)C)c(=O)n(-c2ccccc2)n1C` was 1.94.
In turn, `CC(C)(C)C(COc1ccc([N+](=O)[O-])cc1)OC(=O)n1ccnc1` (stereo not given) came in with a logP of 3.35.
Turning to `CNC(=O)N(C)c1nnc(C(F)(F)F)s1`, the log partition coefficient (logP) was 1.85.
For `NS(=O)(=O)c1cc2c(cc1Cl)N=C(Cc1ccccc1)NS2(=O)=O`, the logP is 1.7.
Still for that read-out and setting: as for `O=C(OC[C@H]1O[C@@H](n2cc(I)c(=O)[nH]c2=O)C[C@@H]1O)c1ccccc1`, the figure is 1.4; as for `CCC12CCN(CC3(O)CC3)C(Cc3ccc(O)cc31)C2(C)C` (stereo not given), 3.82.
The molecule `Cc1ccc(Nc2c([N+](=O)[O-])c(C)nn2-c2ccccc2)cc1` displayed a logP of 3.43.
Still for that read-out and setting: the value for `O=[N+]([O-])c1c(Cl)c(Cl)c(Cl)c(Cl)c1Cl` was 4.64; that for `CCOC(=O)Cn1cnc(I)c1[N+](=O)[O-]` was 0.93; that for `CC1OC(=O)C(C)C(O)C1C` (stereo not given) was 0.36.
`CN(Cc1ccccc1)C(=O)C(Cc1ccccc1)NC(=O)C(Cc1cn(C(=O)OCc2ccccc2)c2ccccc12)NC(=O)CC1NC(=O)C2C3CCC(CC3)N2C1=O` (stereo not given): the logP came out at 5.66.
Same read-out and setting: the value for `O=c1[nH]c(=O)n(Cc2ccccc2)cc1F` was 0.89; that for `Cc1ccc(C)c(C)c1C` was 4.
Still for that read-out and setting: the value for `COc1cc(N)ccc1C(=O)O` was 0.45; that for `COC(=O)NC1=NCC(c2cccc(Br)c2)N1` (stereo not given) was 2.09.
In turn, `Clc1cccc(-c2cc(Cl)cc(Cl)c2)c1` displayed a logP of 5.81.
The molecule `COc1c(O)c(Cl)c(Cl)c(Cl)c1Cl` registered a logP of 4.59.
Consider `O=[N+]([O-])c1ccccc1O[C@@H]1O[C@H](CO)[C@@H](O)[C@H](O)[C@H]1O`, for which the logP is -0.78.
Same read-out and setting: the value for `COC(=O)C1=C(C)NC(C)=C(C(=O)OC(C)C)C1c1cccc2nonc12` (stereo not given) was 4.28; that for `CC(=O)NN1CC=CCC1` was 0.52; that for `CCCCc1ccc(OCC(OC(=O)n2ccnc2)C(C)(C)C)cc1` (stereo not given) was 4.97.
`CN1C(CSCC(F)(F)F)Nc2cc(Cl)c(S(N)(=O)=O)cc2S1(=O)=O` (stereo not given) returned a logP of 1.9.
For `CCOC(=O)C1=C(C)NC(C)=C(C(=O)OCC)C1c1ccccc1/C=C/C(=O)OC(C)(C)C`, the logP was 5.2.
The same measure, in the same setting: the value for `Fc1ccccc1C1=NCC(=S)N(CC(F)(F)F)c2ccc(Cl)cc21` was 4.03; that for `CC(C)(C)C(COc1ccc(Cl)cc1)OC(=S)n1ccnc1` (stereo not given) was 4.96.
Still for that read-out and setting: as for `CC(C)CC1NC(=O)NC1=O` (stereo not given), the figure is 0.35; as for `N=C(NCC#CCC(NC(=O)C(Cc1ccc2ccccc2c1)Cc1cccc2ccccc12)C(=O)NC(CC1CCCCC1)C(O)CC(=O)NCCN1CCOCC1)N[N+](=O)[O-]` (stereo not given), 4.73.
Still for that read-out and setting: the value for `CC(=O)O[C@H]1[C@@H](OC(C)=O)C[C@H](O[C@@H]2C(C)O[C@@H](O[C@H]3[C@@H](OC(C)=O)C[C@H](O[C@H]4CC[C@@]5(C)[C@H](CC[C@@H]6[C@@H]5CC[C@]5(C)[C@@H](C7=CC(=O)OC7)[C@@H](OC(C)=O)C[C@]65O)C4)O[C@@H]3C)C[C@@H]2OC(C)=O)O[C@@H]1C` (stereo not given in full) was 3.46.
`Cn1c([N+](=O)[O-])cnc1COC(N)=O`: the logP is -0.38.
`CC(C)(C)C(COc1ccc(Br)cc1)OC(=S)n1ccnc1` (stereo not given) yielded a logP of 5.11.
Consider `Cc1cc(O)c(N)nn1`, for which the logP was -0.85.
`OC[C@@H](O)[C@H]1O[C@@H]2O[C@H](C(Cl)(Cl)Cl)O[C@@H]2[C@H]1O` showed a logP of 1.02.
The same measure, in the same setting: as for `CCCN1Cn2c(nc3ccccc3c2=O)C1C` (stereo not given), the figure is 1.4; as for `COCC(C)n1ccc(=O)c(O)c1C` (stereo not given), -0.26.
The molecule `Cc1c(O)c(=O)ccn1C(C)C` came in with a logP of 0.05.
The same measure, in the same setting: the value for `CC[C@H](C)C(=O)O[C@H]1CCC=C2C=C[C@H](C)[C@H](CC[C@@H]3C[C@@H](O)CC(=O)O3)[C@H]21` was 3.95; that for `CCc1c(C)nc2n(c1=O)C(C)CCC2` (stereo not given) was 1.43; that for `CC(C)(C)C(COc1ccc(Cl)cc1)OC(=O)n1ccnc1` (stereo not given) was 4.19.
For `CCN(CC)c1cccc(S(=O)(=O)[O-])c1.[Na+]`, the logP is -1.6.
The same measure, in the same setting: as for `CSc1ncnc2c1ncn2[C@@H]1O[C@H](CO)[C@@H](O)[C@H]1O`, the figure is 0.09; as for `CCn1cc(C(=O)O)c(=O)c2cc(F)c(N3CCNCC3)nc21`, -0.2.
Take `COC(=O)c1cnc2n(c1=O)CCCC2`: the logP is -0.25.
In turn, `CCCC(=O)N1CCCC1=O` returned a log partition coefficient (logP) of 1.18.
In turn, `Cc1cc(O)c(N(C)C)nn1` gave a logP of 0.24.
Same read-out and setting: as for `NC(=S)c1ccc(Cl)cc1`, the figure is 2.4.
Still for that read-out and setting: the value for `CC1c2nc3ccccc3c(=O)n2CN1CCO` (stereo not given) was 0.46; that for `CC(=O)O[C@H]1C[C@H](O[C@H]2[C@@H](O)C[C@H](O[C@H]3[C@@H](O)C[C@H](OC4CC[C@@]5(C)[C@H](CC[C@@H]6[C@@H]5CC[C@]5(C)[C@@H](C7=CC(=O)OC7)CC[C@]65O)C4)O[C@@H]3C)O[C@@H]2C)O[C@H](C)[C@H]1O[C@@H]1O[C@H](CO)[C@@H](O)[C@H](O)[C@H]1O` (stereo not given in full) was 1.23; that for `CC(CF)NCC(O)COc1cccc2[nH]c3ccccc3c12` (stereo not given) was 2.81.
Turning to `CCCOc1ccc(OCC(OC(=O)n2ccnc2)C(C)(C)C)cc1` (stereo not given), the lipophilicity (logP) amounted to 4.1.
`CC(C)(C)C(COc1ccc(I)cc1)OC(=O)n1ccnc1` (stereo not given): the logP was 4.3.
Same read-out and setting: as for `Cc1cccn2c(=O)ccnc12`, the figure is 0.79.
Still for that read-out and setting: as for `COc1ccc(C(O)C(=O)O)cc1` (stereo not given), the figure is 0.63; as for `O=C1CN=C(c2ccccc2)c2cc(Cl)ccc2N1CC(F)(F)F`, 3.97; as for `CCNC(=O)NCCCCn1nc(-c2ccccc2)ccc1=O`, 1.83.
As for `Cc1c(O)c(=O)ccn1CCC(=O)NC(C)C`, the logP was -0.47.
Still for that read-out and setting: the value for `CCCCCC(C)N` (stereo not given) was 2.4; that for `NC1C2CCC1c1ccc(C(F)(F)F)cc1C2` (stereo not given) was 3.54.
With `CC1c2nc3ccccc3c(=O)n2CN1C` (stereo not given), the logP was determined as 0.85.
Still for that read-out and setting: the value for `CC(=O)c1ccc2c(c1)N(CCCN1CCN(CCO)CC1)c1ccccc1S2` was 2.62.
Same read-out and setting: as for `CN(C)C(=O)n1cc(F)c(=O)[nH]c1=O`, the figure is -0.37; as for `O=C(O)COc1ccccc1[N+](=O)[O-]`, 1.13.
Same read-out and setting: as for `CCNc1nc(C)c(C(=O)CCN(CC)CC)s1`, the figure is 2.72; as for `CCCOc1ccc(OCC(OC(=S)n2ccnc2)C(C)(C)C)cc1` (stereo not given), 5.03.
Turning to `CCC(=O)OCC1OC(n2cc(I)c(=O)[nH]c2=O)CC1O` (stereo not given), the logP amounted to 0.68.
Take `O=c1c2ccccc2nc2n1CCCCC2`: the log partition coefficient (logP) turned out to be 2.
`COc1ccc(OCC(OC(=O)n2ccnc2)C(C)(C)C)cc1` (stereo not given): the logP came out at 3.46.
Molecule `CC(C)c1ccc(N)cc1` displayed a logP of 2.49.
Turning to `COc1ncnc(NS(=O)(=O)c2ccc(N)cc2)c1OC`, the log partition coefficient (logP) was 0.7.
In turn, `Cc1ncc([N+](=O)[O-])n1CC(O)Cn1c([N+](=O)[O-])cnc1C` returned a logP of 0.31.
Consider `CCCCCCN(C)C(=O)c1cccc(Oc2ccccc2)c1`, for which the logP amounted to 5.01.
The same measure, in the same setting: the value for `CCOCCCn1ccc(=O)c(O)c1C` was 0.12; that for `Nc1cccc(Cl)c1Cl` was 2.82; that for `COCCn1ccc(=O)c(O)c1C` was -0.41.
Consider `CC(=O)Nc1ccc(Cl)cc1`, for which the logP is 2.09.
In turn, `CC(=O)OCC1=C(C(=O)OCOC(=O)C(C)(C)C)N2C(=O)C(NC(=O)CSc3ccncc3)C2SC1` (stereo not given) had a logP of 1.63.
Take `CS(=O)(=O)c1ccc(OCC(=O)O)cc1`: the logP came to 0.06.
Molecule `Nc1cc(Cl)c(Cl)cc1Cl` yielded a logP of 3.45.
For the molecule `O=C(O)Cn1nnc2ccccc21`, the logP is -1.88.

Staying with this data set, now noted: pH 7.4.
Turning to `COc1ccc2c3c1O[C@H]1[C@@H](O)C=C[C@H]4[C@@H](C2)N(C)CC[C@@]341.O=P(O)(O)O`, the logD (usually the decadic logarithm of the distribution of all forms, ionised or not, between an organic phase and buffer at a given pH) was -1.4.
